In ChEMBL document CHEMBL5661943, “ASAP - In vitro antiviral effect” (2024):
Several values for one entry are separate records, joined by “and”; a condition that tells them apart may be missing. Equal entries are not always repeated.

Key:
dengue virus type 2 [1] = test: Functional CPE-based assay to measure dose dependent changes in antiviral-drug inhibitory efficacy against Dengue virus type 2 New Guinea C in Huh7 cells. Cells are treated with antiviral candidates that are serially diluted. EC50 is reported via analysis of MTT/MTS assay as a readout of CPE. The assay has been performed by National Institute of Allergy and Infectious Diseases.; type: organism-based, Homo sapiens; conditions: Huh-7
Zika virus [2] = test: (§1) Functional immunofluorescence assay to measure dose dependent changes in antiviral-drug inhibitory efficacy against Zika virus PRVABC59 in Vero E6/TMPRSS2 cells. Cells are treated with antiviral candidates that are serially diluted, following infection, cells are fixed. EC50 is reported via analysis of immunofluorescence staining. The assay has been performed by Icahn School of Medicine at Mount Sinai.; type: organism-based, Chlorocebus sabaeus
dengue virus type 2 [3] = test: as §1, with “Dengue” for “Zika”, “type 2 Thailand/16681/84” for “PRVABC59”; type: organism-based, Chlorocebus sabaeus; conditions: for EC50: VeroE6/TMPRSS2; for EC90: VeroE6/TMPRSS2, Baseline response 0 %, Maximum response 100 %
Zika virus [4] = test: EC50 is reported via analysis of immunofluorescence staining. The assay has been performed by Icahn School of Medicine at Mount Sinai.; type: functional, organism-based, Chlorocebus sabaeus, VeroE6/TMPRSS2
Zika virus [5] = test: (§2) Functional CPE-based assay to measure dose dependent changes in antiviral-drug inhibitory efficacy against Zika virus MR766 in Vero E6 miRFP670 cells. Cells are treated with antiviral candidates that are serially diluted. EC50 is reported via analysis of MTS assay as a readout of CPE. The assay has been performed by KU Leuven.; type: organism-based, Chlorocebus sabaeus, Vero C1008; conditions: Zika virus; for EC50: Vero C1008; for EC90: Vero C1008, Baseline response 0 %, Maximum response 100 %
dengue virus type 2 [6] = test: Functional assay to measure dose dependent changes in antiviral-drug inhibitory efficacy against Dengue virus type 2 New Guinea C in Vero E6 miRFP670 cells (cotreated with P-gp inhibitor, CP100356). Cells are treated with antiviral candidates that are serially diluted, following infection, cells are fixed. EC50 is reported via analysis of fluorescence intensity using high-content imager. The …; type: organism-based, Chlorocebus sabaeus, Vero C1008; conditions: for EC90: Baseline response 0 %, Maximum response 100 %, P-gp concentration 500 nM, P-gp inhibitor CP100356
dengue virus type 2 [7] = test: as §1, with “Dengue” for “Zika”, “type 2 Thailand/16681/84” for “PRVABC59”, “cells (cotreated with P-gp inhibitor, Elacridar).” for “cells.”; type: organism-based, Chlorocebus sabaeus, VeroE6/TMPRSS2
Zika virus [8] = test: as §2, with “cells (cotreated with P-gp inhibitor, CP100356).” for “cells.”; type: organism-based, Chlorocebus sabaeus, Vero C1008; conditions: Zika virus, Vero C1008

In the case of `COc1cc(Cc2c(-c3ccc(F)cc3)noc2C)nc(N2CCNCC2)n1`, the EC50 (dengue virus type 2 [1]) is reported as > 18 µM.
With `CCCCCC(=O)N[C@H](C(=O)Nc1ccc2[nH]ncc2c1)c1ccc(OCc2ccccc2)cc1` the EC50 (dengue virus type 2 [1]) was 6.2 µM.
`CC[C@@H](Cc1nnn[nH]1)c1ccc(NC(=O)c2cc(Cl)cc(NC(=O)OCc3ccccc3)c2)cc1` was tested, and the EC50 (Zika virus [2]; VeroE6/TMPRSS2) was > 50 µM, the EC90 (Zika virus [2]; VeroE6/TMPRSS2) was > 50 µM and the EC50 (dengue virus type 2 [3]) was > 5560 nM. For the same molecule, the EC90 (dengue virus type 2 [3]; Hill slope -0.186, Maximum measured 93.084 %, Minimum measured 36.595 %, R squared 0.076) was > 5.56 µM, the EC50 (Zika virus [4]; Zika virus, VeroE6/TMPRSS2) was 1930 nM and the EC90 (Zika virus [4]; Zika virus, VeroE6/TMPRSS2) was 2.9 µM. For the same molecule, the EC50 (Zika virus [5]) was > 50 µM, the EC90 (Zika virus [5]; Hill slope 5.649, Maximum measured 5.74 %, Minimum measured -1.447 %, R squared 0.24) was > 50 µM and the EC50 (dengue virus type 2 [6]; Dengue virus, Vero C1008) was 43.5 µM. The EC90 (dengue virus type 2 [6]; Dengue virus, Vero C1008, Hill slope -24.458, Maximum measured 108.477 %, Minimum measured 3.247 %, R squared 0.952) was 47.6 µM, the EC50 (dengue virus type 2 [7]; Dengue virus, VeroE6/TMPRSS2) was 10.4 µM and the EC90 (dengue virus type 2 [7]; Dengue virus, VeroE6/TMPRSS2, Baseline response 0 %, Hill slope -0.442, Maximum measured 140.797 %, Maximum response 100 %, Minimum measured 47.356 %, P-gp concentration 2 uM, R squared 0.351, P-gp inhibitor Elacidar) was > 16.7 µM.
`c1ccc2sc(C3CCN(Cc4c[nH]c5ccccc45)CC3)nc2c1` was tested, and the EC50 (dengue virus type 2 [1]) was > 18 µM, the EC90 (Zika virus [4]; Baseline response 0 %, EC90 CI (lower) 0.007 uM, EC90 CI (upper) 47.388 uM, Hill slope -1.134, Maximum measured 126.957 %, Maximum response 50 %, Minimum measured 1.357 %, P-gp concentration 2 uM, R squared 0.32, P-gp inhibitor Elacidar) was 28.6 µM and the EC50 (Zika virus [4]; Zika virus, VeroE6/TMPRSS2) was 2330 nM. The EC90 (Zika virus [4]; Zika virus, VeroE6/TMPRSS2, Baseline response 0 %, Hill slope -0.408, Maximum measured 80.807 %, Maximum response 100 %, Minimum measured 15.814 %, P-gp concentration 2 uM, R squared 0.363, P-gp inhibitor Elacidar) was > 16.7 µM, the EC50 (Zika virus [4]; veroe6/tmprss2) was 4110 nM and the EC90 (dengue virus type 2 [7]; Baseline response 0 %, EC90 CI (lower) 2.225 uM, EC90 CI (upper) 16.418 uM, Hill slope -4.495, Maximum measured 125.314 %, Maximum response 100 %, Minimum measured 8.4 %, P-gp concentration 2 uM, R squared 0.582, P-gp inhibitor Elacidar) was 16.1 µM. The EC90 (dengue virus type 2 [7]; Dengue virus, VeroE6/TMPRSS2) was 16.6 µM and the EC50 (dengue virus type 2 [7]; veroe6/tmprss2) was 2.19 µM and 9.85 µM.
For `Cc1ccc(NC(=O)c2cc(Cl)cc(NC(=O)OCc3ccccc3)c2)cc1CN`, the EC50 (Zika virus [2]; VeroE6/TMPRSS2) was > 50 µM, the EC90 (Zika virus [2]; VeroE6/TMPRSS2, Maximum measured 627.464 %, Minimum measured 75.729 %) was > 50 µM and the EC50 (dengue virus type 2 [3]) was < 23 nM. For the same molecule, the EC90 (dengue virus type 2 [3]; Hill slope -0.25, Maximum measured 56.738 %, Minimum measured 21.854 %, R squared 0.324) was > 5.56 µM, the EC50 (Zika virus [8]) was 2610 nM and the EC90 (Zika virus [8]; Baseline response 0 %, Hill slope 6.556, Maximum measured 76.39 %, Maximum response 100 %, Minimum measured 1.967 %, P-gp concentration 500 nM, R squared 0.915, P-gp inhibitor CP100356) was > 3.12 µM. For the same molecule, the EC90 (Zika virus [4]; Zika virus, VeroE6/TMPRSS2, Maximum measured 108.754 %, Minimum measured 39.323 %, P-gp concentration 2 uM, P-gp inhibitor Elacidar) was > 5.56 µM, the EC90 (Zika virus [4]; Zika virus, VeroE6/TMPRSS2, Baseline response 0 %, Hill slope -0.897, Maximum measured 104.466 %, Maximum response 100 %, Minimum measured 2.423 %, P-gp concentration 2 uM, R squared 0.573, P-gp inhibitor Elacidar) was > 5.56 µM and the EC50 (Zika virus [4]; veroe6/tmprss2) was 903 nM and > 5560 nM. For the same molecule, the EC50 (Zika virus [5]) was > 3.12 µM, the EC90 (Zika virus [5]; Hill slope 16.084, Maximum measured 41.192 %, Minimum measured -3.993 %, R squared 0.961) was > 3.12 µM and the EC90 (dengue virus type 2 [6]; EC90 CI (lower) 0 uM, EC90 CI (upper) Could not be calculated, confidence interval too large, Hill slope -15.095, Maximum measured 108.434 %, Minimum measured 1.527 %, R squared 0.917) was 3.71 µM. For the same molecule, the EC90 (dengue virus type 2 [6]; Hill slope -19.938, Maximum measured 107.168 %, Minimum measured 6.341 %, R squared 0.876) was 1.73 µM, the EC50 (dengue virus type 2 [6]; vero c1008) was 3.21 µM and 1.55 µM and the EC50 (dengue virus type 2 [7]; Dengue virus, VeroE6/TMPRSS2) was 0.532 µM. The EC90 (dengue virus type 2 [7]; Dengue virus, VeroE6/TMPRSS2, Baseline response 0 %, Hill slope -0.692, Maximum measured 108.544 %, Maximum response 100 %, Minimum measured 11.231 %, P-gp concentration 2 uM, R squared 0.808, P-gp inhibitor Elacidar) was > 5.56 µM.
`NCc1cccc(NC(=O)C[C@@H](NC(=O)OCc2ccccc2)c2ccc(OCc3ccccc3)cc2)c1` was tested, and the EC50 (dengue virus type 2 [1]) was > 6.1 µM.
In the case of `NCc1cccc(NC(=O)[C@@H](NC(=O)OCc2ccccc2)c2ccc(OCc3ccccc3)cc2)c1`, the EC50 (dengue virus type 2 [1]) is reported as > 18 µM.
